According to ChEMBL document CHEMBL5252625, “Development of sulfonium tethered peptides conjugated with HDAC inhibitor to improve selective toxicity for cancer cells” (Bioorg Med Chem, 2023):
The source made the active and inactive calls. The rule behind the calls is not given here. Non-standard residues stand in square brackets, D forms with d. Residues, ends and D or L forms follow the SMILES beside them. *: point of attachment. Ahx = NCCCCCC(=O)O; NHOH = ON*

Assays:
[1] = molecular target: T1, Histone deacetylase (Homo sapiens) (UniProt Q13547+O15379+Q9UBN7+Q92769+Q9UQL6+Q8WUI4+Q9BY41+Q96DB2+P56524+Q9UKV0+Q969S8); assay: Inhibition of HDAC in human HepG2 cells assessed as increase in histone H3 acetylation at 20 uM incubated for 24 hrs by Western blot analysis; assay type: cell-based
Huh-7 [2] = assay: Induction of cell cycle arrest in human Huh-7 cells assessed as accumulation of cells at sub G1 phase at 10 uM incubated for 24 hrs by FACscan flow cytometer analysis relative to control; assay type: functional
[3] = Hemolytic activity in mouse erythrocytes assessed as hemolysis at 80 uM incubated for 1.5 hrs by microplate reader assay; assay type: toxicity, cell-based; details: erythrocyte
Huh-7 [4] = assay: Induction of cell cycle arrest in human Huh-7 cells assessed as accumulation of cells at G1 phase at 10 uM incubated for 24 hrs by FACscan flow cytometer analysis (reference value: 39.68%); assay type: functional
Huh-7 [5] = assay: Induction of apoptosis in human Huh-7 cells assessed as late apoptotic cells at 10 uM incubated for 24 hrs by FITC Annexin V/propidium iodide staining based flow cytometry analysis (reference value: 5.19%); assay type: functional
Huh-7 [6] = assay: Induction of cell cycle arrest in human Huh-7 cells assessed as accumulation of cells at G2 phase at 10 uM incubated for 24 hrs by FACscan flow cytometer analysis (reference value: 25.74%); assay type: functional
Huh-7 [7] = assay: Induction of apoptosis in human Huh-7 cells assessed as early apoptotic cells at 10 uM incubated for 24 hrs by FITC Annexin V/propidium iodide staining based flow cytometry analysis (reference value: 1.85%); assay type: functional
[8] = molecular target: T1, Histone deacetylase (Homo sapiens); assay: Inhibition of HDAC in human Huh-7 cells assessed as increase in histone H3 acetylation at 20 uM incubated for 24 hrs by Western blot analysis; assay type: cell-based
Histone deacetylase = assay: Inhibition of HDAC in human HeLa cell extracts using Boc-Lys(Ac)-AM as substrate by fluorescence based analysis
Huh-7 [9] = assay: Induction of apoptosis in human Huh-7 cells assessed as viable cells at 10 uM incubated for 24 hrs by FITC Annexin V/propidium iodide staining based flow cytometry analysis (reference value: 92.6%); assay type: functional; details: read-out: Activity
Huh-7 [10] = assay: Induction of cell cycle arrest in human Huh-7 cells assessed as accumulation of cells at S phase at 10 uM incubated for 24 hrs by FACscan flow cytometer analysis (reference value: 41.7%); assay type: functional
Huh-7 [11] = assay: Induction of apoptosis in human Huh-7 cells assessed as necrotic cells at 10 uM incubated for 24 hrs by FITC Annexin V/propidium iodide staining based flow cytometry analysis (reference value: 0.401%); assay type: functional
Huh-7 [12] = assay: Induction of apoptosis in human Huh-7 cells assessed as early apoptotic cells at 5 uM incubated for 24 hrs by FITC Annexin V/propidium iodide staining based flow cytometry analysis (reference value: 1.85%); assay type: functional
Huh-7 [13] = assay: Induction of apoptosis in human Huh-7 cells assessed as necrotic cells at 5 uM incubated for 24 hrs by FITC Annexin V/propidium iodide staining based flow cytometry analysis (reference value: 0.401%); assay type: functional
Huh-7 [14] = assay: Induction of cell cycle arrest in human Huh-7 cells assessed as accumulation of cells at S phase at 2.5 uM incubated for 24 hrs by FACscan flow cytometer analysis (reference value: 41.7%); assay type: functional
Huh-7 [15] = assay: Induction of cell cycle arrest in human Huh-7 cells assessed as accumulation of cells at sub G1 phase at 2.5 uM incubated for 24 hrs by FACscan flow cytometer analysis relative to control; assay type: functional
Huh-7 [16] = assay: Induction of cell cycle arrest in human Huh-7 cells assessed as accumulation of cells at G1 phase at 2.5 uM incubated for 24 hrs by FACscan flow cytometer analysis (reference value: 39.68%); assay type: functional
Huh-7 [17] = assay: Induction of apoptosis in human Huh-7 cells assessed as viable cells at 5 uM incubated for 24 hrs by FITC Annexin V/propidium iodide staining based flow cytometry analysis (reference value: 92.6%); assay type: functional; details: read-out: Activity
Huh-7 [18] = assay: Induction of cell cycle arrest in human Huh-7 cells assessed as accumulation of cells at G2 phase at 2.5 uM incubated for 24 hrs by FACscan flow cytometer analysis (reference value: 25.74%); assay type: functional
Huh-7 [19] = assay: Induction of apoptosis in human Huh-7 cells assessed as late apoptotic cells at 5 uM incubated for 24 hrs by FITC Annexin V/propidium iodide staining based flow cytometry analysis (reference value: 5.19%); assay type: functional
HT-29 = assay: Antiproliferative activity against human HT-29 cells incubated for 48 hrs by CCK8 method; assay type: functional, cell-based; details: HT-29, 48 h
Huh-7 [20] = assay: Induction of apoptosis in human Huh-7 cells assessed as necrotic cells at 20 uM incubated for 24 hrs by FITC Annexin V/propidium iodide staining based flow cytometry analysis (reference value: 0.401%); assay type: functional
Huh-7 [21] = assay: Induction of cell cycle arrest in human Huh-7 cells assessed as accumulation of cells at G2 phase at 20 uM incubated for 24 hrs by FACscan flow cytometer analysis (reference value: 25.74%); assay type: functional
Huh-7 [22] = assay: Induction of cell cycle arrest in human Huh-7 cells assessed as accumulation of cells at sub G1 phase at 20 uM incubated for 24 hrs by FACscan flow cytometer analysis relative to control; assay type: functional
Huh-7 [23] = assay: Induction of apoptosis in human Huh-7 cells assessed as late apoptotic cells at 20 uM incubated for 24 hrs by FITC Annexin V/propidium iodide staining based flow cytometry analysis (reference value: 5.19%); assay type: functional
Huh-7 [24] = assay: Anticancer activity in human Huh-7 cells assessed as change in BMP4 gene expression by KEGG analysis; assay type: functional, cell-based
Huh-7 [25] = assay: Induction of apoptosis in human Huh-7 cells assessed as viable cells at 20 uM incubated for 24 hrs by FITC Annexin V/propidium iodide staining based flow cytometry analysis (reference value: 92.6%); assay type: functional; details: read-out: Activity
Huh-7 [26] = assay: Anticancer activity in human Huh-7 cells assessed as change in JAK2 gene expression by KEGG analysis; assay type: functional, cell-based
Huh-7 [27] = assay: Anticancer activity in human Huh-7 cells assessed as change in TP53 gene expression by KEGG analysis; assay type: functional, cell-based
Huh-7 [28] = assay: Induction of apoptosis in human Huh-7 cells assessed as early apoptotic cells at 20 uM incubated for 24 hrs by FITC Annexin V/propidium iodide staining based flow cytometry analysis (reference value: 1.85%); assay type: functional
HepG2 = assay: Antiproliferative activity against human HepG2 cells incubated for 48 hrs by CCK8 method; assay type: functional, cell-based; details: HepG2, 48 h
[29] = Stability in mouse serum measured upto 24 hrs by LC/MS analysis; assay type: ADME, cell-free
Huh-7 [30] = assay: Induction of cell cycle arrest in human Huh-7 cells assessed as accumulation of cells at G1 phase at 20 uM incubated for 24 hrs by FACscan flow cytometer analysis (reference value: 39.68%); assay type: functional
[31] = molecular target: T1, Histone deacetylase (Homo sapiens); assay: Inhibition of HDAC in human Huh-7 cells assessed as increase in histone H3 acetylation at 20 to 40 uM incubated for 24 hrs by Western blot analysis; assay type: cell-based; details: dose 20-40 µM
Huh-7 [32] = assay: Anticancer activity in human Huh-7 cells assessed as change in BCL2L11gene expression by KEGG analysis; assay type: functional, cell-based
[33] = molecular target: T1, Histone deacetylase (Homo sapiens); assay: Inhibition of HDAC in human HepG2 cells assessed as increase in histone H3 acetylation at 20 to 40 uM incubated for 24 hrs by Western blot analysis; assay type: cell-based; details: dose 20-40 µM
Huh-7 [34] = assay: Anticancer activity in human Huh-7 cells assessed as change in BMP2 gene expression by KEGG analysis; assay type: functional, cell-based
Huh-7 [35] = assay: Induction of cell cycle arrest in human Huh-7 cells assessed as accumulation of cells at S phase at 20 uM incubated for 24 hrs by FACscan flow cytometer analysis (reference value: 41.7%); assay type: functional
Huh-7 [36] = assay: Anticancer activity in human Huh-7 cells assessed as change in WNT6 gene expression by KEGG analysis; assay type: functional, cell-based
Huh-7 [37] = assay: Antiproliferative activity against human Huh-7 cells incubated for 48 hrs by CCK8 method; assay type: functional, cell-based; details: Huh-7, 48 h
[38] = Cytotoxicity activity against human HEK293T cells incubated for 48 hrs by CCK8 method; assay type: toxicity, cell-based, HEK-293T
[39] = Drug localization in human Huh-7 cells incubated for 24 hrs by DAPI staining based microscopy analysis; assay type: ADME, cell-based; details: huh-7, 24 h
[40] = Drug uptake in human Huh-7 cells assessed as cell penetration incubated for 24 hrs by flow cytometry analysis; assay type: ADME, cell-based; details: huh-7, 24 h

Compound	inhibition [1]	Activity (Huh-7 [2])	Activity (Huh-7 [4])	Activity (Huh-7 [5])	Activity (Huh-7 [6])	Activity (Huh-7 [7])	inhibition [8]	IC50 (Histone deacetylase)	viability at 10 µM (Huh-7 [9])	Activity (Huh-7 [10])	Activity (Huh-7 [11])	IC50 (HT-29)	IC50 (HepG2)	IC50 (Huh-7 [37])	also measured
CSCC[C@H](NC(=O)[C@H](CCCNC(=N)N)NC(=O)[C@H](CC(C)C)NC(=O)[C@H](CCCNC(=N)N)NC(=O)[C@H](CCSC)NC(=O)[C@H](CC(C)C)NC(=O)[C@H](CCCNC(=N)N)NC(=O)[C@H](CC(C)C)NC(=O)[C@H](CC(C)C)NC(=O)[C@H](CCCNC(=N)N)NC(C)=O)C(=O)N[C@@H](CC(C)C)C(=O)N[C@@H](CC(C)C)C(=O)N[C@@H](CCCNC(=N)N)C(=O)N[C@@H](CC(C)C)C(N)=O (Ac-RLLRLMRLRMLLRL-NH2)	inactive	6.9%	58.07%	21.1%	6.43%	3.93%	inactive	> 100 µM	69.6%	36.8%	5.39%				Activity [3]: Toxic
O=C(CCCCCCC(=O)Nc1ccccc1)NO [VORINOSTAT]															Activity (Huh-7 [12]): 6.4%; Activity (Huh-7 [13]): 9.35%; Activity (Huh-7 [14]): 25.97%; Activity (Huh-7 [15]): 7.16%; Activity (Huh-7 [16]): 46.95%; viability at 5 µM (Huh-7 [17]): 47.2%; Activity (Huh-7 [18]): 18.46%; Activity (Huh-7 [19]): 37%
CC(=O)N[C@@H](CCCNC(=N)N)C(=O)N[C@@H](CC(C)C)C(=O)N[C@@H](CC(C)C)C(=O)N[C@@H](CCCNC(=N)N)C(=O)N[C@@H](CC(C)C)C(=O)N[C@H]1CC[S+](C)Cc2cccc(c2)C[S+](C)CC[C@@H](C(=O)N[C@@H](CC(C)C)C(=O)N[C@@H](CC(C)C)C(=O)N[C@@H](CCCNC(=N)N)C(=O)N[C@@H](CC(C)C)C(=O)NCCCCCC(=O)NO)NC(=O)[C@H](CCCNC(=N)N)NC(=O)[C@H](CC(C)C)NC(=O)[C@H](CCCNC(=N)N)NC1=O (some centres undefined)								0.31 µM				54.6 µM	52.2 µM	43.7 µM	Activity (Huh-7 [20]): 3.89%; Activity (Huh-7 [21]): 17.34%; Activity (Huh-7 [22]): 2.98%; Activity (Huh-7 [23]): 18.2%; Activity (Huh-7 [24]): Active; viability at 20 µM (Huh-7 [25]): 73%; Activity (Huh-7 [26]): Active; Activity (Huh-7 [27]): Active; Activity (Huh-7 [28]): 4.97%; Stability [29]: Stable; Activity (Huh-7 [30]): 51.86%; inhibition [31]: Active; Activity (Huh-7 [32]): Active; inhibition [33]: Active; Activity (Huh-7 [34]): Active; Activity (Huh-7 [35]): 33.25%; Activity (Huh-7 [36]): Active
CC(=O)N[C@@H](CCCNC(=N)N)C(=O)N[C@@H](CC(C)C)C(=O)N[C@@H](CC(C)C)C(=O)N[C@@H](CCCNC(=N)N)C(=O)N[C@@H](CC(C)C)C(=O)N[C@H]1CC[S+](C)Cc2cccc(c2)C[S+](C)CC[C@@H](C(=O)N[C@@H](CC(C)C)C(=O)N[C@@H](CC(C)C)C(=O)N[C@@H](CCCNC(=N)N)C(=O)N[C@@H](CC(C)C)C(=O)O)NC(=O)[C@H](CCCNC(=N)N)NC(=O)[C@H](CC(C)C)NC(=O)[C@H](CCCNC(=N)N)NC1=O (some centres undefined)								> 100 µM							
CSCC[C@H](NC(=O)[C@H](CCCNC(=N)N)NC(=O)[C@H](CC(C)C)NC(=O)[C@H](CCCNC(=N)N)NC(=O)[C@H](CCSC)NC(=O)[C@H](CC(C)C)NC(=O)[C@H](CCCNC(=N)N)NC(=O)[C@H](CC(C)C)NC(=O)[C@H](CC(C)C)NC(=O)[C@H](CCCNC(=N)N)NC(C)=O)C(=O)N[C@@H](CC(C)C)C(=O)N[C@@H](CC(C)C)C(=O)N[C@@H](CCCNC(=N)N)C(=O)N[C@@H](CC(C)C)C(=O)NCCCCCC(=O)NO (Ac-RLLRLMRLRMLLRL[Ahx]-{NHOH})	Active	10.82%	47.63%	16.5%	9.53%	5.46%	Active	0.446 µM	75%	37.76%	3.03%	42.6 µM	34 µM	28.1 µM	IC50 at 48 h [38]: 39.8 µM; Drug uptake [39]: Active; Drug uptake [40]: Active
